Source: the supplement of paper PMC13207355

Legend:
Details in all cases: exposure time: 72 h
E13 [1] = patient-derived glioblastoma stem cells of classical subtype; test: surviving fraction (nuclei count normalised to DMSO); higher = more cells surviving (less toxic)
E21 [2] = patient-derived glioblastoma stem cells of mesenchymal subtype; test: as above
E28 [3] = patient-derived glioblastoma stem cells of classical subtype; test: as above
E31 [4] = patient-derived glioblastoma stem cells of proneural subtype; test: as above
E34 [5] = patient-derived glioblastoma stem cells of proneural subtype; test: as above
E57 [6] = patient-derived glioblastoma stem cells of mesenchymal subtype; test: as above
FT3469 [7] = normal neural stem cell line; test: as above
E13 [8] = test: phenotypic distance (Euclidean, principal components) from DMSO controls (arbitrary units); higher = stronger morphological change
E21 [9] = test: as above
E28 [10] = test: as above
E31 [11] = test: as above
E34 [12] = test: as above
E57 [13] = test: as above
FT3469 [14] = test: as above
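For phenotypic distance (Euclidean, principal components) from DMSO controls in this document: cell Painting imaging in 384-well plates, CellProfiler features reduced to at least 20 principal components, Euclidean distance versus same-plate DMSO vehicle wells (0.1% v/v), median over six images per well.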
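For surviving fraction (nuclei count normalised to DMSO) in this document: nuclei counted by high-content imaging of Hoechst-stained cells in laminin-coated 384-well plates, relative to 0.1% DMSO vehicle wells, with staurosporine as cell-death control.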

Cc1cccn2c(=O)c(-c3nnn[nH]3)cnc12 [Pemirolast potassium]
Details | phenotypic distance | surviving fraction
E13 [1], 4.1 nM | – | 0.925
E13 [1], 12.3 nM | – | 0.971
E13 [1], 37 nM | – | 1
E13 [1], 111.1 nM | – | 1.04
E13 [1], 333.3 nM | – | 0.947
E13 [1], 1000 nM | – | 0.974
E13 [1], 3000 nM | – | 1.18
E13 [8], 4.1 nM | 0.849 | –
E13 [8], 12.3 nM | 0.649 | –
E13 [8], 37 nM | 2.3 | –
E13 [8], 111.1 nM | 0.669 | –
E13 [8], 333.3 nM | 3.24 | –
E13 [8], 1000 nM | 0.451 | –
E13 [8], 3000 nM | 0.784 | –
E21 [2], 4.1 nM | – | 0.923
E21 [2], 12.3 nM | – | 0.982
E21 [2], 37 nM | – | 0.908
E21 [2], 111.1 nM | – | 0.88
E21 [2], 333.3 nM | – | 0.953
E21 [2], 1000 nM | – | 1.01
E21 [2], 3000 nM | – | 1.1
E21 [9], 4.1 nM | 0.761 | –
E21 [9], 12.3 nM | 0.597 | –
E21 [9], 37 nM | 3.74 | –
E21 [9], 111.1 nM | 0.731 | –
E21 [9], 333.3 nM | 0.31 | –
E21 [9], 1000 nM | 0.294 | –
E21 [9], 3000 nM | 0.896 | –
E28 [3], 4.1 nM | – | 1.07
E28 [3], 12.3 nM | – | 1.11
E28 [3], 37 nM | – | 1.06
E28 [3], 111.1 nM | – | 0.959
E28 [3], 333.3 nM | – | 1.14
E28 [3], 1000 nM | – | 1.05
E28 [3], 3000 nM | – | 1.22
E28 [10], 4.1 nM | 0.658 | –
E28 [10], 12.3 nM | 0.636 | –
E28 [10], 37 nM | 0.677 | –
E28 [10], 111.1 nM | 0.665 | –
E28 [10], 333.3 nM | 0.613 | –
E28 [10], 1000 nM | 0.514 | –
E28 [10], 3000 nM | 0.875 | –
E31 [4], 4.1 nM | – | 0.909
E31 [4], 12.3 nM | – | 0.917
E31 [4], 37 nM | – | 0.897
E31 [4], 111.1 nM | – | 0.921
E31 [4], 333.3 nM | – | 1.21
E31 [4], 1000 nM | – | 0.987
E31 [4], 3000 nM | – | 1.12
E31 [11], 4.1 nM | 1.22 | –
E31 [11], 12.3 nM | 0.493 | –
E31 [11], 37 nM | 0.804 | –
E31 [11], 111.1 nM | 0.401 | –
E31 [11], 333.3 nM | 0.814 | –
E31 [11], 1000 nM | 0.403 | –
E31 [11], 3000 nM | 0.73 | –
E34 [5], 4.1 nM | – | 1.09
E34 [5], 12.3 nM | – | 0.99
E34 [5], 37 nM | – | 1.04
E34 [5], 111.1 nM | – | 0.927
E34 [5], 333.3 nM | – | 1.15
E34 [5], 1000 nM | – | 1.03
E34 [5], 3000 nM | – | 1.11
E34 [12], 4.1 nM | 1.15 | –
E34 [12], 12.3 nM | 0.672 | –
E34 [12], 37 nM | 0.605 | –
E34 [12], 111.1 nM | 0.603 | –
E34 [12], 333.3 nM | 0.641 | –
E34 [12], 1000 nM | 0.674 | –
E34 [12], 3000 nM | 0.547 | –
E57 [6], 4.1 nM | – | 0.965
E57 [6], 12.3 nM | – | 0.992
E57 [6], 37 nM | – | 0.959
E57 [6], 111.1 nM | – | 1.09
E57 [6], 333.3 nM | – | 0.986
E57 [6], 1000 nM | – | 1.01
E57 [6], 3000 nM | – | 1.01
E57 [13], 4.1 nM | 0.873 | –
E57 [13], 12.3 nM | 0.412 | –
E57 [13], 37 nM | 0.46 | –
E57 [13], 111.1 nM | 0.618 | –
E57 [13], 333.3 nM | 0.603 | –
E57 [13], 1000 nM | 0.198 | –
E57 [13], 3000 nM | 0.693 | –
FT3469 [7], 4.1 nM | – | 1.01
FT3469 [7], 12.3 nM | – | 0.959
FT3469 [7], 37 nM | – | 1.08
FT3469 [7], 111.1 nM | – | 1.07
FT3469 [7], 333.3 nM | – | 1.19
FT3469 [7], 1000 nM | – | 1.09
FT3469 [7], 3000 nM | – | 1.23
FT3469 [14], 4.1 nM | 1.49 | –
FT3469 [14], 12.3 nM | 0.577 | –
FT3469 [14], 37 nM | 0.829 | –
FT3469 [14], 111.1 nM | 0.485 | –
FT3469 [14], 333.3 nM | 0.522 | –
FT3469 [14], 1000 nM | 0.561 | –
FT3469 [14], 3000 nM | 1.16 | –
